Measurements published in patent US12077503B2, “Substituted cyclic amides and their use as herbicides” (FMC CORPORATION, priority 2015, dated 2024).

What was measured:
Type in all cases: in vivo
[1] = test system: pigweed (Amaranthus retroflexus); experiment: Test A postemergence
From the text: (§1) Seeds of plant species selected from barnyardgrass (Echinochloa crus-galli), Kochia (Kochia scoparia), ragweed (common ragweed, Ambrosia elatior), ryegrass, Italian (Italian ryegrass, Lolium multiflorum), crabgrass, large (Digitaria sanguinalis), giant foxtail (Setaria faberii), green foxtail (Setaria viridis), morningglory (Ipomoea spp.), pigweed (Amaranthus retroflexus), velvetleaf (Abutilon theophrasti), wheat (Triticum aestivum), and corn (Zea mays) were planted into a blend of loam soil and sand and treated preemergence with a directed soil spray using test chemicals formulated in anon-phytotoxic solvent mixture which included a surfactant.
(§2) At the same time, plants selected from these crop and weed species and also blackgrass (Alopecurus myosuroides), and Galium (catchweed bedstraw, Galium aparine) were planted in pots containing the same blend of loam soil and sand and treated with postemergence applications of test chemicals formulated in the same manner. Plants ranged in height from 2 to 10 cm and were in the one- to two-leaf stage for the postemergence treatment. Treated plants and untreated controls were maintained in a greenhouse for approximately 10 d, after which time all treated plants were compared to untreated controls and visually evaluated for injury. Plant response ratings, summarized in Table A, are based on a 0 to 100 scale where 0 is no effect and 100 is complete control. A dash (-) response means no test result.

[2] = test system: Galium (catchweed bedstraw, Galium aparine); experiment: Test A postemergence
From the text: as §1, §2

[3] = test system: giant foxtail (Setaria faberii); experiment: Test A postemergence
From the text: as §1, §2

[4] = test system: ryegrass, Italian (Italian ryegrass, Lolium multiflorum); experiment: Test A postemergence
From the text: as §1, §2

Kochia (Kochia scoparia) [5] = experiment: Test A postemergence
From the text: as §1, §2

[6] = test system: blackgrass (Alopecurus myosuroides); experiment: Test A postemergence
From the text: as §1, §2

[7] = test system: ragweed (common ragweed, Ambrosia elatior); experiment: Test A postemergence
From the text: as §1, §2

corn (Zea mays) = experiment: Test A postemergence
From the text: as §1, §2

[8] = test system: barnyardgrass (Echinochloa crus-galli); experiment: Test A postemergence
From the text: as §1, §2

[9] = test system: wheat (Triticum aestivum); experiment: Test A postemergence
From the text: as §1, §2

[10] = test system: pigweed (Amaranthus retroflexus); experiment: Test A preemergence; details: Preemergence; for Plant response rating, Pigweed: 125 g ai/ha, visual injury after approximately 10 d, 0 to 100 scale where 0 is no effect and 100 is complete control; for Pigweed plant response rating (0 to 100 scale, 0 is no effect, 100 is complete control): 500 g ai/ha, visual injury approx. 10 d
From the text: as §1, §2

[11] = test system: giant foxtail (Setaria faberii); experiment: Test A preemergence; details: Preemergence; for Plant response rating, Foxtail, Giant: 125 g ai/ha, visual injury after approximately 10 d, 0 to 100 scale where 0 is no effect and 100 is complete control; for Foxtail, Giant plant response rating (0 to 100 scale, 0 is no effect, 100 is complete control): 500 g ai/ha, visual injury approx. 10 d
From the text: as §1, §2

[12] = test system: ryegrass, Italian (Italian ryegrass, Lolium multiflorum); experiment: Test A preemergence; details: Preemergence; for Plant response rating, Ryegrass, Italian: 125 g ai/ha, visual injury after approximately 10 d, 0 to 100 scale where 0 is no effect and 100 is complete control; for Ryegrass, Italian plant response rating (0 to 100 scale, 0 is no effect, 100 is complete control): 500 g ai/ha, visual injury approx. 10 d
From the text: as §1, §2

Kochia (Kochia scoparia) [13] = experiment: Test A preemergence; details: Preemergence; for Plant response rating, Kochia: 125 g ai/ha, visual injury after approximately 10 d, 0 to 100 scale where 0 is no effect and 100 is complete control; for Kochia plant response rating (0 to 100 scale, 0 is no effect, 100 is complete control): 500 g ai/ha, visual injury approx. 10 d
From the text: as §1, §2

[14] = test system: ragweed (common ragweed, Ambrosia elatior); experiment: Test A preemergence; details: Preemergence; for Plant response rating, Ragweed: 125 g ai/ha, visual injury after approximately 10 d, 0 to 100 scale where 0 is no effect and 100 is complete control; for Ragweed plant response rating (0 to 100 scale, 0 is no effect, 100 is complete control): 500 g ai/ha, visual injury approx. 10 d
From the text: as §1, §2

[15] = test system: barnyardgrass (Echinochloa crus-galli); experiment: Test A preemergence; details: Preemergence; for Plant response rating, Barnyardgrass: 125 g ai/ha, visual injury after approximately 10 d, 0 to 100 scale where 0 is no effect and 100 is complete control; for Barnyardgrass plant response rating (0 to 100 scale, 0 is no effect, 100 is complete control): 500 g ai/ha, visual injury approx. 10 d
From the text: as §1, §2

[16] = 125 g ai/ha, postemergence, visual rating after approx. 10 d, 0 to 100 scale (0 no effect, 100 complete control)
[17] = Postemergence, 500 g ai/ha, 0 to 100 scale where 0 is no effect and 100 is complete control
[18] = 125 g ai/ha, postemergence, visual injury rating on 0 to 100 scale (0 no effect, 100 complete control), approx. 10 d

## Cc1ccc(C2CN(C)C(=O)C2C(=O)Nc2ccc(F)cc2F)c(F)c1 (centres unmarked) [Compound 559]
[1]; [16]
  Plant response rating, Pigweed: 0
[1]; [17]
  Plant response rating, Pigweed: 0
[2]; [16]
  Plant response rating, Galium: 50
[2]; [17]
  Plant response rating, Galium: 60
[3]; [16]
  Plant response rating, Foxtail, Giant: 90
[3]; [17]
  Plant response rating, Foxtail, Giant: 90
[4]; [16]
  Plant response rating, Ryegrass, Italian: 0
[4]; [17]
  Plant response rating, Ryegrass, Italian: 30
Kochia (Kochia scoparia) [5]; [16]
  Plant response rating, Kochia: 30
Kochia (Kochia scoparia) [5]; [17]
  Plant response rating, Kochia: 70
[6]; [16]
  Plant response rating, Blackgrass: 20
[6]; [17]
  Plant response rating, Blackgrass: 60
[7]; [16]
  Plant response rating, Ragweed: 0
[7]; [17]
  Plant response rating, Ragweed: 0
Corn (Zea mays); [16]
  Plant response rating, Corn: 0
Corn (Zea mays); [17]
  Plant response rating, Corn: 30
[8]; [16]
  Plant response rating, Barnyardgrass: 90
[8]; [17]
  Plant response rating, Barnyardgrass: 100
[9]; [16]
  Plant response rating, Wheat: 0
[9]; [17]
  Plant response rating, Wheat: 50
[10]
  Plant response rating, Pigweed: 20
  Pigweed plant response rating (0 to 100 scale, 0 is no effect, 100 is complete control): 50
[11]
  Plant response rating, Foxtail, Giant: 90
  Foxtail, Giant plant response rating (0 to 100 scale, 0 is no effect, 100 is complete control): 100
[12]
  Plant response rating, Ryegrass, Italian: 0
  Ryegrass, Italian plant response rating (0 to 100 scale, 0 is no effect, 100 is complete control): 50
Kochia (Kochia scoparia) [13]
  Plant response rating, Kochia: 60
  Kochia plant response rating (0 to 100 scale, 0 is no effect, 100 is complete control): 80
[14]
  Plant response rating, Ragweed: 0
  Ragweed plant response rating (0 to 100 scale, 0 is no effect, 100 is complete control): 20
[15]
  Plant response rating, Barnyardgrass: 90
  Barnyardgrass plant response rating (0 to 100 scale, 0 is no effect, 100 is complete control): 100

## Cc1ccc(C2CN(C)C(=O)C2C(=O)Nc2ccccc2F)c(F)c1 (centres unmarked) [Compound 560]
[1]; [16]
  Plant response rating, Pigweed: 0
[1]; [17]
  Plant response rating, Pigweed: 20
[2]; [16]
  Plant response rating, Galium: 40
[2]; [17]
  Plant response rating, Galium: 60
[3]; [16]
  Plant response rating, Foxtail, Giant: 90
[3]; [17]
  Plant response rating, Foxtail, Giant: 90
[4]; [16]
  Plant response rating, Ryegrass, Italian: 0
[4]; [17]
  Plant response rating, Ryegrass, Italian: 60
Kochia (Kochia scoparia) [5]; [16]
  Plant response rating, Kochia: 40
Kochia (Kochia scoparia) [5]; [17]
  Plant response rating, Kochia: 80
[6]; [16]
  Plant response rating, Blackgrass: 30
[6]; [17]
  Plant response rating, Blackgrass: 50
[7]; [16]
  Plant response rating, Ragweed: 0
[7]; [17]
  Plant response rating, Ragweed: 20
Corn (Zea mays); [16]
  Plant response rating, Corn: 0
Corn (Zea mays); [17]
  Plant response rating, Corn: 30
[8]; [16]
  Plant response rating, Barnyardgrass: 90
[8]; [17]
  Plant response rating, Barnyardgrass: 100
[9]; [16]
  Plant response rating, Wheat: 0
[9]; [17]
  Plant response rating, Wheat: 50
[10]
  Plant response rating, Pigweed: 0
  Pigweed plant response rating (0 to 100 scale, 0 is no effect, 100 is complete control): 40
[11]
  Plant response rating, Foxtail, Giant: 100
  Foxtail, Giant plant response rating (0 to 100 scale, 0 is no effect, 100 is complete control): 100
[12]
  Plant response rating, Ryegrass, Italian: 0
  Ryegrass, Italian plant response rating (0 to 100 scale, 0 is no effect, 100 is complete control): 70
Kochia (Kochia scoparia) [13]
  Plant response rating, Kochia: 60
  Kochia plant response rating (0 to 100 scale, 0 is no effect, 100 is complete control): 80
[14]
  Plant response rating, Ragweed: 0
  Ragweed plant response rating (0 to 100 scale, 0 is no effect, 100 is complete control): 0
[15]
  Plant response rating, Barnyardgrass: 90
  Barnyardgrass plant response rating (0 to 100 scale, 0 is no effect, 100 is complete control): 100

## O=C(Nc1cccc(F)c1F)C1C(=O)N(C2C=CCCC2)CC1c1cccc(C(F)(F)F)c1 (centres unmarked) [Compound 525]
[1]; [16]
  Plant response rating, Pigweed: 0
[1]; [17]
  Plant response rating, Pigweed: 0
[2]; [16]
  Plant response rating, Galium: 0
[2]; [17]
  Plant response rating, Galium: 0
[3]; [16]
  Plant response rating, Foxtail, Giant: 20
[3]; [17]
  Plant response rating, Foxtail, Giant: 60
[4]; [16]
  Plant response rating, Ryegrass, Italian: 0
[4]; [17]
  Plant response rating, Ryegrass, Italian: 0
Kochia (Kochia scoparia) [5]; [16]
  Plant response rating, Kochia: 0
Kochia (Kochia scoparia) [5]; [17]
  Plant response rating, Kochia: 0
[6]; [18]
  Blackgrass plant response rating: 0
[6]; [17]
  Plant response rating, Blackgrass: 30
[7]; [16]
  Plant response rating, Ragweed: 0
[7]; [17]
  Plant response rating, Ragweed: 0
Corn (Zea mays); [16]
  Plant response rating, Corn: 0
Corn (Zea mays); [17]
  Plant response rating, Corn: 0
[8]; [18]
  Barnyardgrass plant response rating: 40
[8]; [17]
  Plant response rating, Barnyardgrass: 40
[9]; [16]
  Plant response rating, Wheat: 0
[9]; [17]
  Plant response rating, Wheat: 0
[10]
  Plant response rating, Pigweed: 0
  Pigweed plant response rating (0 to 100 scale, 0 is no effect, 100 is complete control): 0
[11]
  Plant response rating, Foxtail, Giant: 30
  Foxtail, Giant plant response rating (0 to 100 scale, 0 is no effect, 100 is complete control): 70
[12]
  Plant response rating, Ryegrass, Italian: 0
  Ryegrass, Italian plant response rating (0 to 100 scale, 0 is no effect, 100 is complete control): 0
Kochia (Kochia scoparia) [13]
  Plant response rating, Kochia: 0
  Kochia plant response rating (0 to 100 scale, 0 is no effect, 100 is complete control): 0
[14]
  Plant response rating, Ragweed: 0
  Ragweed plant response rating (0 to 100 scale, 0 is no effect, 100 is complete control): 0
[15]
  Plant response rating, Barnyardgrass: 30
  Barnyardgrass plant response rating (0 to 100 scale, 0 is no effect, 100 is complete control): 50

## CN1CC(c2cccc(C(F)(F)F)c2)C(C(=O)Nc2cccc(C#N)c2F)C1=O (centres unmarked) [Compound 576]
[1]; [16]
  Plant response rating, Pigweed: 0
[1]; [17]
  Plant response rating, Pigweed: 50
[2]; [16]
  Plant response rating, Galium: 50
[2]; [17]
  Plant response rating, Galium: 60
[3]; [16]
  Plant response rating, Foxtail, Giant: 90
[3]; [17]
  Plant response rating, Foxtail, Giant: 90
[4]; [16]
  Plant response rating, Ryegrass, Italian: 30
[4]; [17]
  Plant response rating, Ryegrass, Italian: 60
Kochia (Kochia scoparia) [5]; [16]
  Plant response rating, Kochia: 30
Kochia (Kochia scoparia) [5]; [17]
  Plant response rating, Kochia: 60
[6]; [16]
  Plant response rating, Blackgrass: 50
[6]; [17]
  Plant response rating, Blackgrass: 50
[7]; [16]
  Plant response rating, Ragweed: 30
[7]; [17]
  Plant response rating, Ragweed: 50
Corn (Zea mays); [16]
  Plant response rating, Corn: 80
Corn (Zea mays); [17]
  Plant response rating, Corn: 80
[8]; [16]
  Plant response rating, Barnyardgrass: 90
[8]; [17]
  Plant response rating, Barnyardgrass: 90
[9]; [16]
  Plant response rating, Wheat: 60
[9]; [17]
  Plant response rating, Wheat: 70
[10]
  Plant response rating, Pigweed: 20
  Pigweed plant response rating (0 to 100 scale, 0 is no effect, 100 is complete control): 80
[11]
  Plant response rating, Foxtail, Giant: 90
  Foxtail, Giant plant response rating (0 to 100 scale, 0 is no effect, 100 is complete control): 90
[12]
  Plant response rating, Ryegrass, Italian: 20
  Ryegrass, Italian plant response rating (0 to 100 scale, 0 is no effect, 100 is complete control): 30
Kochia (Kochia scoparia) [13]
  Plant response rating, Kochia: 20
  Kochia plant response rating (0 to 100 scale, 0 is no effect, 100 is complete control): 90
[14]
  Plant response rating, Ragweed: 20
  Ragweed plant response rating (0 to 100 scale, 0 is no effect, 100 is complete control): 60
[15]
  Plant response rating, Barnyardgrass: 90
  Barnyardgrass plant response rating (0 to 100 scale, 0 is no effect, 100 is complete control): 90
